Results taken from ChEMBL document CHEMBL4406823 (Eur J Med Chem, 2019).
The source made the active and inactive calls. The rule behind the calls is not given here.

How the values were obtained:
HeLa = assay: cells; conditions: Homo sapiens, 72 h
Description: Antiproliferative activity against human HeLa cells assessed as inhibition of cell proliferation incubated for 72 hrs by MTT assay

HT-29 = assay: cells; conditions: Homo sapiens, HT-29, 72 h
Description: Antiproliferative activity against human HT-29 cells assessed as inhibition of cell proliferation incubated for 72 hrs by MTT assay

SEM cells = assay: Antiproliferative activity against human SEM cells assessed as inhibition of cell proliferation incubated for 72 hrs by MTT assay; assay type: functional, cell-based
Tubulin = Tubulin (Bos taurus, UniProt Q6B856+Q862L2+Q862F3); assay: Inhibition of bovine brain tubulin assembly using GTP as substrate incubated for 20 mins by spectrophotometric method
MDA-MB-231 [1] = assay: Antiproliferative activity against human MDA-MB-231 cells assessed as inhibition of cell proliferation incubated for 72 hrs by MTT assay; assay type: functional, cell-based; conditions: MDA-MB-231, 72 h
MCF7 = assay: cells; conditions: Homo sapiens, MCF7, 72 h
Description: Antiproliferative activity against human MCF7 cells assessed as inhibition of cell proliferation incubated for 72 hrs by MTT assay

HL-60 = assay: Antiproliferative activity against human HL60 cells assessed as inhibition of cell proliferation incubated for 72 hrs by MTT assay; assay type: functional, cell-based; conditions: HL-60, 72 h
Tubulin (Bos taurus) [2] = molecular target: T1, Tubulin (Bos taurus) (UniProt Q6B856+Q862L2+Q862F3); assay: Displacement of [3H]-colchicine from bovine brain tubulin at 5 uM incubated for 1 hr by relative to control
MDA-MB-231 [3] = assay: Induction of cell cycle arrest in human MDA-MB-231 cells assessed as effect on cyclin B protein expression at 50 to 100 nM incubated for 24 to 48 hrs by western blot analysis; assay type: functional, cell-based
MDA-MB-231 [4] = assay: Induction of mitochondrial membrane depolarization in human MDA-MB-231 cells at 50 to 100 nM incubated for 24 to 48 hrs by JC1 staining based flow cytometric method; assay type: functional, cell-based
CCRF-CEM = assay: Antiproliferative activity against human CEM cells assessed as inhibition of cell growth incubated for 72 hrs by MTT assay; assay type: functional
[5] = Cytotoxicity against human quiescent PBL assessed as reduction in cell viability incubated for 72 hrs by MTT assay; assay type: cell-based
MDA-MB-231 [6] = assay: Induction of apoptosis in human MDA-MB-231 cells at 50 nM incubated for 24 to 48 hrs by annexin V-FITC/propidium iodide staining-based flow cytometry analysis; assay type: functional, cell-based
MDA-MB-231 [7] = assay: Induction of apoptosis in human MDA-MB-231 cells assessed as activation of PARP cleavage at 50 to 100 nM incubated for 48 hrs by Western blot analysis; assay type: functional, cell-based
[8] = Cytotoxicity against PHA-stimulated human PBL assessed as reduction in cell viability incubated for 72 hrs by MTT assay; assay type: cell-based
MDA-MB-231 [9] = assay: Induction of cell cycle arrest in human MDA-MB-231 cells assessed as reduction in accumulation of cells at S phase at 10 to 100 nM incubated for 24 hrs by PI staining based flow cytometric analysis; assay type: functional
[10] = Cytotoxicity against human astrocytes assessed as reduction in cell viability incubated for 72 hrs by MTT assay; assay type: cell-based, Astrocyte
MDA-MB-231 [11] = assay: Induction of apoptosis in human MDA-MB-231 cells assessed as reduction in Mcl1 protein expression at 50 to 100 nM incubated for 48 hrs by Western blot analysis; assay type: functional, cell-based
MDA-MB-231 [12] = assay: Induction of ROS generation in human MDA-MB-231 cells at 50 to 100 nM incubated for 24 to 48 hrs by H2-DCFDA staining based flow cytometric method; assay type: functional, cell-based
MDA-MB-231 [13] = assay: Induction of cell cycle arrest in human MDA-MB-231 cells assessed as increase in accumulation of cells at G2/M phase at 100 nM incubated for 24 hrs by PI staining based flow cytometric analysis; assay type: functional
[14] = Antiproliferative activity against human CEM/VBL100 cells overexpressing P-gp assessed as inhibition of cell growth incubated for 72 hrs by MTT assay; assay type: functional; conditions: CEM/VBL100, 72 h
MDA-MB-231 [15] = assay: Induction of apoptosis in human MDA-MB-231 cells assessed as reduction in XIAP protein expression at 50 to 100 nM incubated for 24 to 48 hrs by Western blot analysis; assay type: functional, cell-based
MDA-MB-231 [16] = assay: Induction of cell cycle arrest in human MDA-MB-231 cells assessed as increase in p21 protein expression level at 50 to 100 nM incubated for 24 to 48 hrs by western blot analysis; assay type: functional, cell-based
MDA-MB-231 [17] = assay: Induction of cell cycle arrest in human MDA-MB-231 cells assessed as reduction in accumulation of cells at G1 phase at 10 to 100 nM incubated for 24 hrs by PI staining based flow cytometric analysis; assay type: functional
Tubulin (Bos taurus) [18] = molecular target: T1, Tubulin (Bos taurus); assay: Displacement of [3H]-colchicine from bovine brain tubulin at 0.5 uM incubated for 1 hr by relative to control

Row | IC50 (HeLa) | IC50 (HT-29) | IC50 (Tubulin) | IC50 (MDA-MB-231 [1]) | IC50 (MCF7) | IC50 (HL-60) | inhibition (Tubulin (Bos taurus) [2]) | inhibition (Tubulin (Bos taurus) [18]) | SMILES | IC50 (SEM cells) | also measured
1 | 28.7 nM | 51.3 nM | 0.57 µM | 3650 nM | > 10000 nM | 40.9 nM | 85% |  | COc1cc(-c2n[nH]cc2-c2ccc(SC)cc2)cc(OC)c1OC | 30.1 nM | 
2 | 0.05 nM | 0.3 nM | 0.36 µM | 4.5 nM | 1.5 nM | 3.2 nM | 95% | 69% | CCOc1ccc(-c2c[nH]nc2-c2cc(OC)c(OC)c(OC)c2)cc1 | 0.2 nM | Activity (MDA-MB-231 [3]): inactive; Activity (MDA-MB-231 [4]): Active; GI50 (CCRF-CEM): 0.4 nM; GI50 at 72 h [5]: 8.7 µM; Activity (MDA-MB-231 [6]): Active; Activity (MDA-MB-231 [7]): Active; GI50 at 72 h [8]: > 10 µM; Activity (MDA-MB-231 [9]): Active; GI50 at 72 h [10]: > 10 µM; Activity (MDA-MB-231 [11]): Active; Activity (MDA-MB-231 [12]): Active; Activity (MDA-MB-231 [13]): Active; GI50 [14]: 1.9 nM; Activity (MDA-MB-231 [15]): Active; Activity (MDA-MB-231 [16]): Active; Activity (MDA-MB-231 [17]): Active
3 | 25.2 nM | 44.4 nM | 0.57 µM | 262 nM | 700 nM | 31.4 nM | 86% |  | COc1cc(-c2c[nH]nc2-c2ccc(C)cc2)cc(OC)c1OC | 14.7 nM | 
4 | 33.5 nM | 41.3 nM | 0.52 µM | 3270 nM | > 10000 nM | 23.3 nM | 85% |  | CCc1ccc(-c2c[nH]nc2-c2cc(OC)c(OC)c(OC)c2)cc1 | 18.7 nM | 
5 | 361 nM | 541 nM |  | 1550 nM | 2790 nM | 553 nM |  |  | CCCc1ccc(-c2c[nH]nc2-c2cc(OC)c(OC)c(OC)c2)cc1 | 406 nM | 
6 | 26.2 nM | 67.4 nM | 0.48 µM | 481 nM | 1700 nM | 31 nM | 91% | 49% | COc1cc(-c2n[nH]cc2-c2ccc(C)c(F)c2)cc(OC)c1OC | 23.5 nM | 

More lines, now with the values behind:

Row | SMILES | IC50 (HeLa) | IC50 (HT-29) | IC50 (Tubulin) | IC50 (MDA-MB-231 [1]) | IC50 (MCF7) | IC50 (HL-60) | inhibition (Tubulin (Bos taurus) [2]) | inhibition (Tubulin (Bos taurus) [18]) | IC50 (SEM cells) | also measured
7 | COc1cc(-c2c[nH]nc2-c2cc(OC)c(OC)c(OC)c2)ccc1C | 287 nM | 316 nM |  | 5280 nM | > 10000 nM | 160 nM |  |  | 305 nM | 
8 | COc1cc(-c2n[nH]cc2-c2cc3ccccc3s2)cc(OC)c1OC | 1.7 nM | 7.4 nM | 0.3 µM | 2.5 nM | 1.4 nM | 2.3 nM | 93% | 69% | 0.5 nM | 
9 | COc1ccc(/C=C\c2cc(OC)c(OC)c(OC)c2)cc1O [COMBRETASTATIN A4] |  |  |  | 4.5 nM |  |  |  |  | 5.1 nM | 
10 | CCOc1ccc(-c2c[nH]nc2-c2cc(OC)c(OC)c(OC)c2)cc1Cl | 1.6 nM | 4.2 nM | 0.39 µM | 6.9 nM | 4.5 nM | 1.5 nM | 90% | 62% | 1.4 nM | 
11 | COc1cc(-c2n[nH]cc2-c2ccc(OC(F)(F)F)cc2)cc(OC)c1OC | 3380 nM | 2420 nM |  | 5740 nM | > 10000 nM | 1750 nM |  |  | 2470 nM | 
12 | COc1ccc(-c2c[nH]nc2-c2cc(OC)c(OC)c(OC)c2)cc1C | 32.9 nM | 37.3 nM | 0.44 µM | 2680 nM | > 10000 nM | 17.7 nM | 81% |  | 17.2 nM | 
